Reference: patent US20240131044A1, “METHOD FOR TREATING CANCER” (M.T.3, Inc., priority 2022, published 2024)

What was measured:
[1] = test system: angiogenesis; conditions: in combination with radiation; cited from earlier work
[2] = test system: V79 cells; experiment: Colony formation, survival fraction of V79 cells; assay type: cell-based, Chinese hamsters; conditions: SQAP not administered
Protocol: (§1) An anti-cancer agent and a pharmaceutical composition were administered to test cells and then the cells were cultured. Then, after colonies were formed, the number of colonies was counted. Here, samples in which the concentration of the anti-cancer agent to be administered was varied were prepared, and in each sample, the survival fraction of the cells compared with the case where cells were cultured without administration of the pharmaceutical composition was measured. Regarding the type of anti-cancer agent to be administered, a predetermined anti-cancer agent was selected depending on the type of administration target cells. Note that cells that were cultured without administration of the pharmaceutical composition and the anti-cancer agent were used as a control. Hereinafter, these steps will be described.
(§2) Here, CHO cells, V79 cells, and canine-derived cancer cells were prepared as the test cells. The CHO cells are ovarian cells derived from Chinese hamsters, and the V79 cells are fibroblasts derived from the lungs of Chinese hamsters. Melanoma developing cells (CML6M) and soft tissue sarcoma developing cells (STSA-1) were used as the cancer cells.
(§3) The cancer cells were prepared by being cultured using an αMEM culture medium supplemented with 10% serum and an antibiotic. The cancer cells were prepared such that, when the concentration of the cells in a cell suspension obtained by subjecting the cultured cells to PBS washing and trypsin treatment, the concentration was within a predetermined concentration range. Here, the predetermined concentration ranges were 300 cells/well, 100 to 150 cells/well, and 500 to 1000 cells/well for the CHO/V79 cells, the melanoma cells, and the soft tissue sarcoma cells, respectively.
(§4) Next, the cancer cells were cultured in culture environments to which the anti-cancer agent was added at various concentrations, and were then allowed to form colonies. The culture periods for colony formation were a week, 10 days, and 14 days for CHO and V79, melanoma, and soft tissue sarcoma, respectively. After colonies were formed, washing using a physiological saline solution, fixation using 100% ethanol, and staining using 0.1% crystal violet were performed, and then the number of colonies per well was counted under a microscope. Note that, here, the colony was defined as containing 50 or more cells. […]
A graph with the horizontal axis representing the concentration of the anti-cancer agent and the vertical axis representing the survival fraction was created by plotting the survival fraction measurement results relative to the SQAP administration amounts, and the effect of the addition of SQAP on the survival fraction was examined. Hereinafter, the results from each anti-cancer agent will be shown in a table and described. […]
V79 cells were used as the cells, and cisplatin was used as the anti-cancer agent. The cisplatin was administered at concentrations of 0 μg/mL, 0.1 μg/mL, 0.2 μg/mL, 0.3 μg/mL, 0.4 μg/mL, and 0.5 μg/mL.
V79 cells were used as the cells, and camptothecin was used as the anti-cancer agent. The amount of the camptothecin was set to 0 nM, 5 nM, 10 nM, 15 nM, and 20 nM.
V79 cells were used as the cells, and mitomycin C was used as the anti-cancer agent. The amount of MMC was set to 0 nM, 100 nM, 200 nM, 300 nM, 400 nM, and 500 nM. […]
V79 cells were used as the cells, and taxol was used as the anti-cancer agent. The amount of the taxol was set to 0 nM, 10 nM, 20 nM, and 30 nM.
V79 cells were used as the cells, and MMS was used as the anti-cancer agent. The amount of the MMS was set to 0 μM, 10 μM, 20 μM, 30 μM, and 40 μM.
(§5) In the above examples, the anti-cancer agent and the pharmaceutical composition were administered to the test cells and then the cells were cultured. […]

[3] = test system: Melanoma developing cells (CML6M); experiment: Colony formation, survival fraction of canine melanoma cells; assay type: cell-based; conditions: melanoma cells; doxorubicin 15 nM, SQAP not administered
Protocol: as §1, §2, §3
(§6) Next, the cancer cells were cultured in culture environments to which the anti-cancer agent was added at various concentrations, and were then allowed to form colonies. The culture periods for colony formation were a week, 10 days, and 14 days for CHO and V79, melanoma, and soft tissue sarcoma, respectively. After colonies were formed, washing using a physiological saline solution, fixation using 100% ethanol, and staining using 0.1% crystal violet were performed, and then the number of colonies per well was counted under a microscope. Note that, here, the colony was defined as containing 50 or more cells. Moreover, mitomycin C, doxorubicin, bleomycin, camptothecin, etoposide, taxol, methyl methanesulfonate, and cisplatin were used as the anti-cancer agent.
(§7) A graph with the horizontal axis representing the concentration of the anti-cancer agent and the vertical axis representing the survival fraction was created by plotting the survival fraction measurement results relative to the SQAP administration amounts, and the effect of the addition of SQAP on the survival fraction was examined. Hereinafter, the results from each anti-cancer agent will be shown in a table and described.
Canine-derived melanoma cells and soft tissue sarcoma cells were used as the cells, and doxorubicin was used as the anti-cancer agent. […] Also, the concentration of the doxorubicin administered to the soft tissue sarcoma cells was set to 0 nM, 5 nM, 10 nM, and 15 nM. […] In Table 2, survival fractions in the case where SQAP was not administered are shown with a solid line, survival fractions in the case where SQAP was administered at a concentration of 10 μM are shown with a broken line, survival fractions in the case where SQAP was administered at a concentration of 20 μM are shown with a 1-dot chain line, and survival fractions in the case where SQAP was administered at a concentration of 30 μM are shown with a 2-dot chain line.
as §5

[4] = test system: soft tissue sarcoma developing cells (STSA-1); experiment: Colony formation, survival fraction of canine soft tissue sarcoma cells; assay type: cell-based; conditions: soft tissue sarcoma cells; doxorubicin 10 nM, SQAP not administered
Protocol: as §1, §2, §3, §6, §7
Canine-derived melanoma cells and soft tissue sarcoma cells were used as the cells, and doxorubicin was used as the anti-cancer agent. The amount of the doxorubicin administered to the melanoma cell was set to 0 nM, 5 nM, 10 nM, 15 nM, 20 nM, and 25 nM. […] In Table 2, survival fractions in the case where SQAP was not administered are shown with a solid line, survival fractions in the case where SQAP was administered at a concentration of 10 μM are shown with a broken line, survival fractions in the case where SQAP was administered at a concentration of 20 μM are shown with a 1-dot chain line, and survival fractions in the case where SQAP was administered at a concentration of 30 μM are shown with a 2-dot chain line.
as §5

[5] = test system: CHO cells; experiment: Colony formation, survival fraction of CHO cells; assay type: cell-based, Chinese hamsters; conditions: mitomycin C 500 nM, SQAP not administered
Protocol: as §1, §2, §3, §4
In the above examples, the anti-cancer agent and the pharmaceutical composition were administered to the test cells and then the cells were cultured. In this example, test cells were cultured after administering pharmaceutical composition (SQAP) alone without administering the anti-cancer agent to the test cells, and then the number of colonies was counted after colonies were formed. […]

[6] = test system: human esophageal squamous cell carcinoma; conditions: in combination with radiation; mouse with transplanted human esophageal squamous cell carcinoma; cited from earlier work
[7] = test system: human colon adenocarcinoma; conditions: in combination with radiation; mouse with transplanted human colon adenocarcinoma; cited from earlier work

In the case of `CCCCCCCCCCCCCC(=O)OCCCO[C@H]1O[C@H](CS(=O)(=O)[O-])[C@@H](O)[C@H](O)[C@H]1O.[Na+]` [αSQAP C14:0], the “angiogenesis in an in-vitro test” value [1] is listed as “inhibited”.

With `N.N.[Cl][Pt][Cl]` [cisplatin, reference compound] the survival fraction ([2]; cisplatin 0.3 μg/mL) was “about 40%”.

For `CCCCCCCCCCCCCCCCCC(=O)OCCCO[C@@H]1O[C@H](CS(=O)(=O)[O-])[C@@H](O)[C@H](O)[C@H]1O.[Na+]` [βSQAP C18:0], the “angiogenesis in an in-vitro test” value [1] is listed as “inhibited”.

For `CC(=O)O[C@H]1C(=O)[C@@]2(C)[C@H]([C@H](OC(=O)c3ccccc3)[C@]3(O)C[C@H](OC(=O)[C@H](O)[C@@H](NC(=O)c4ccccc4)c4ccccc4)C(C)=C1C3(C)C)[C@]1(OC(C)=O)CO[C@@H]1C[C@@H]2O` [taxol, reference compound], the survival fraction ([2]; taxol 30 nM) was “about 5%”.

With `COc1cccc2c1C(=O)c1c(O)c3c(c(O)c1C2=O)C[C@@](O)(C(=O)CO)C[C@@H]3O[C@H]1C[C@H](N)[C@H](O)[C@H](C)O1` [doxorubicin, reference compound] the survival fraction [3] was “about 20%” and the survival fraction [4] was “about 6%”.

With `COc1cc([C@@H]2c3cc4c(cc3[C@@H](O[C@@H]3O[C@@H]5CO[C@@H](C)O[C@H]5[C@H](O)[C@H]3O)[C@H]3COC(=O)[C@H]23)OCO4)cc(OC)c1O` [etoposide, reference compound] the survival fraction ([2]; etoposide 30 nM) was “about 30%”.

In the case of `CC[C@@]1(O)C(=O)OCc2c1cc1n(c2=O)Cc2cc3ccccc3nc2-1` [camptothecin, reference compound], the survival fraction ([2]; camptothecin 20 nM) was “about 15%”.

With `COS(C)(=O)=O` [MMS, methyl methanesulfonate, reference compound] the survival fraction ([2]; MMS 40 μM) was “about 40%”.

In the case of `CO[C@@]12[C@H](COC(N)=O)C3=C(C(=O)C(C)=C(N)C3=O)N1C[C@@H]1N[C@@H]12` [mitomycin C, reference compound], the survival fraction [5] was “about 40%” and the survival fraction ([2]; mitomycin C 500 nM) was “about 50%”.

For `CCCCCCCCCCCCCCCCCC(=O)OCCCO[C@H]1O[C@H](CS(=O)(=O)[O-])[C@@H](O)[C@H](O)[C@H]1O.[Na+]` [αSQAP C18:0], the “increase in a tumor volume” value [6] is given as “suppressed”, the “angiogenesis in an in-vitro test” value [1] is given as “inhibited” and the “increase in a tumor volume” value [7] is given as “suppressed”.

For bleomycin [reference compound], the survival fraction ([2]; bleomycin 15 nM) was “about 40%”.

In the case of `CCCCCCCCCCCCCCCCCCCCCC(=O)OCCCO[C@H]1O[C@H](CS(=O)(=O)[O-])[C@@H](O)[C@H](O)[C@H]1O.[Na+]` [αSQAP C22:0], the “angiogenesis in an in-vitro test” value [1] is given as “inhibited”.

For `CCCCCCCCCC(=O)OCCCO[C@H]1O[C@H](CS(=O)(=O)[O-])[C@@H](O)[C@H](O)[C@H]1O.[Na+]` [αSQAP C10:0], the “angiogenesis in an in-vitro test” value [1] is given as “inhibited”.
